In patent publication US20250040914A1, “SYSTEMS AND METHODS FOR FOCUSED ULTRASOUND-ENABLED LIQUID BIOPSY” (Washington University, priority 2021, published 2025):

Assay: FUS-BBBO delivery of Evans Blue to the mouse brain under closed-loop feedback control (fluorescence imaging of brain slices)
Type: in vivo, Swiss mice
Conditions: for drug delivery area (average): area with fluorescence higher than 10 dB above background of brain tissue; for fluorescence intensity of the delivered Evans Blue, increase relative to the 0.5 dB group: brainstem ROI, 30 μL of 4% Evans Blue i.v. after FUS, 30 min after sonication
Procedure: 25 Swiss mice (8-10 weeks, ˜25 g body weight, female, Charles River Laboratory, Wilmington, MA, USA) were randomly assigned into five groups (n=5 for each group) to evaluate five different TCLs using the disclosed algorithm. Swiss mice (8-10 weeks, ˜25 g body weight, female, Charles River Laboratory, Wilmington, MA, USA) were housed in a room maintained at 22° C. and 55% relative humidity, with a 12-h/12-h light/dark cycle and access to standard laboratory chow and water. […] Four Swiss mice were selected to evaluate an existing closed-loop feedback control algorithm with the TCL defined based on the detection of sub-harmonics. During all experiments, mice were anesthetized with 1.5-2% isoflurane and stabilized using a stereotaxic apparatus (Kopf, Tujunga, CA, USA). A heating pad with a temperature kept at ˜38° C. was used to maintain the mouse's body temperature. Mice were prepared for FUS sonication by removing fur on top of the head with a depilatory cream (Nair, Church & Dwight Co., NJ, USA) and coupled to a water container using ultrasound gel. A catheter was placed into the tail vein for microbubbles and Evans blue injection.
A microbubble contrast agent (Definity, Lantheus Medical Imaging, North Billerica, MA) was diluted using sterile saline to a final concentration of approximately 8×10^8 microbubbles per mL. A bolus of diluted microbubble contrast agent (volume=30 μL) was injected intravenously into each mouse through a tail vein catheter. The injection was performed using a computer-controlled syringe pump (NE-1600; New Era Pump Systems Inc.). Microbubbles infusion was started 15 s before FUS sonication to allow microbubbles to flow through the tail vein catheter and reach the mouse brain. The infusion lasted until the end of sonication at a constant rate of 12.8 μL/min. All mice were treated by FUS with output pressure controlled in real-time using the disclosed PCD-based closed-loop feedback control algorithm. The treatment procedure followed a two-step process. A representative example of sonication sequence and detected cavitation level is illustrated in FIG. 20.
A baseline stable cavitation (SC) level was established for each mouse with dummy FUS sonication after injecting the microbubbles. FUS sonication was performed using a pulse repetition frequency of 2 Hz, a pulse length of 6.7 ms burst (i.e., duty cycle: 1.33%), and a sonication duration of 5 s. The output pressure of FUS was 0.2 MPa (all pressures reported were the peak negative pressures calibrated in water). This pressure was selected because it was the lowest pressure at which the microbubble cavitation signal was higher than the noise level without microbubble injection and lower than the pressures needed to induce BBB disruption. During the sonication by each FUS pulse, acoustic emission from microbubbles was recorded by the PCD transducer and processed by a Fast-Fourier transform (FFT) algorithm. SC level was calculated by summing the magnitude of the spectrum within a ±0.02 MHz bandwidth at the third harmonic (i.e., 4.5 MHz) of the FUS transducer. The third harmonic emission was chosen because it was at the center frequency of the PCD transducer. Ten PCD signals were acquired, and the average of SC levels calculated from these ten signals was used to define the baseline SC level.
After establishing the baseline SC level as described above, the mice were further subjected to FUS sonication using the FUS-BBBO with real-time feedback control disclosed herein. During FUS sonication with microbubbles infusion, cavitation was monitored by PCD in real-time, and a custom closed-loop feedback control algorithm was used to control the SC level to be at different TCLs defined to be 0.5 dB, 1 dB, 2 dB, 3 dB, or 4 dB above the baseline SC level. […]

drug delivery area (average) (TCL 0.5 dB): 9.6 mm^2
fluorescence intensity of the delivered Evans Blue, increase relative to the 0.5 dB group (TCL 1 dB above baseline SC level): 2.4 fold
fluorescence intensity of the delivered Evans Blue, increase relative to the 0.5 dB group (TCL 2 dB above baseline SC level): 5.3 fold
fluorescence intensity of the delivered Evans Blue, increase relative to the 0.5 dB group (TCL 3 dB above baseline SC level): 8.2 fold
drug delivery area, increase as TCL was raised from 0.5 dB to 3 dB (TCL 3 dB versus 0.5 dB): 11.7 fold
drug delivery area (average) (TCL 3 dB): 112.8 mm^2
fluorescence intensity and drug delivery area with respect to the values at a TCL of 3 dB (TCL 4 dB): slightly decreased
Structure (SMILES): Cc1cc(-c2ccc(/N=N/c3ccc4c(S(=O)(=O)O)cc(S(=O)(=O)O)c(N)c4c3O)c(C)c2)ccc1/N=N/c1ccc2c(S(=O)(=O)O)cc(S(=O)(=O)O)c(N)c2c1O [Evans Blue]
